IC50 and Ki data for twelve molecules are collected here from BindingDB's records for doi:10.1016/j.bioorg.2015.04.006 (Ataturk University, 2015).

The structures appear in SMILES notation.

As a reminder, the IC50 is the point on the concentration scale where inhibition reaches its midpoint. For orientation: Ki means a dissociation constant, usually derived from enzyme kinetics or from competition with a known ligand. Low values mean higher affinity, high ones lower affinity.

For the test, the target named is Acetylcholinesterase (Homo sapiens, UniProt P22303). The test can be described thus: Acetylcholinesterase Inhibition Assay. Conditions: pH 8. As for the experimental part: AChI and 5,5'-dithio-bis(2-nitro-benzoic)acid (DTNB) were used as substrate for this enzymatic reaction. […] Then 50 µL of DTNB (0.5 mM) was transferred. Then the reaction was initiated by the addition of 50 µL of AChI. The hydrolysis of AChI was recorded spectrophotometrically by the formation of yellow 5-thio-2-nitrobenzoate anion as the result of the reaction of DTNB with thiocholine at a wavelength of 412 nm.
Acetylcholinesterase, sequence (P22303 whole entry): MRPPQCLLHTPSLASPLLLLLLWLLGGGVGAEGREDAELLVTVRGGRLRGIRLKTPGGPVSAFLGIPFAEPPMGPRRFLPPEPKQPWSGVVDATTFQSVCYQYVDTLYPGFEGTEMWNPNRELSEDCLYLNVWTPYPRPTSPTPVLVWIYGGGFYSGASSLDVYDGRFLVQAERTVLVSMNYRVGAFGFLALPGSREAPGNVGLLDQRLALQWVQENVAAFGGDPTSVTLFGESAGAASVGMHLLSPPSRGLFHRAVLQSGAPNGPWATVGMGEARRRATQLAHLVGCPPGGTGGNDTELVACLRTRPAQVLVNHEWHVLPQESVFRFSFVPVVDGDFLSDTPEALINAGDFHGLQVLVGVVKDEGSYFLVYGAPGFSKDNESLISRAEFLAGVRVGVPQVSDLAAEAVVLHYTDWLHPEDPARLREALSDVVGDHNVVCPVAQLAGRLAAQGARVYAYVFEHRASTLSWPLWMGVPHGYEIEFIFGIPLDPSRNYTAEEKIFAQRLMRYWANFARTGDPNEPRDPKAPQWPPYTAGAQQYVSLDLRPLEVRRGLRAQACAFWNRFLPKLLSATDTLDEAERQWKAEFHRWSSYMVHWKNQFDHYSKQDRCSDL
`COc1ccc(OC)c(Br)c1` [2-bromo-1,4-dimethoxybenzene (14)] registered an IC50 of 7.21 nM and a Ki of 4.25 nM.

Take `COc1ccc(C(=O)c2ccc(OC)cc2OC)cc1` [(2,4-dimethoxyphenyl)(4-methoxyphenyl)methanone (18)]: the IC50 turned out to be 5.25 nM and the Ki stood at 5.88 nM.

Take `O=C(c1ccc(O)cc1Br)c1cccc(O)c1O` [(2-Bromo-4-hydroxyphenyl)(2,3-dihydroxyphenyl)methanone (21)]: half-maximal inhibition (IC50) was put at 4.84 nM and the Ki was found to be 3.75 nM.

`COc1ccc(C(=O)c2cccc(OC)c2OC)c(Br)c1` [(2-Bromo-4-methoxyphenyl)(2,3-dimethoxyphenyl)methanone (11)] displayed an IC50 of 4.2 nM and a Ki of 4.34 nM.

Turning to `O=C(c1ccc(O)c(O)c1)c1ccc(O)cc1Br` [(2-bromo-4-hydroxyphenyl)(3,4-dihydroxyphenyl)methanone (20)], it took 4.71 nM to reach half-maximal inhibition (IC50) and the Ki was 4.06 nM.

For the molecule `COc1ccc(C(=O)c2ccc(OC)c(OC)c2)c(Br)c1` [(2-bromo-4-methoxyphenyl)(3,4-dimethoxyphenyl)methanone (10)], half-maximal inhibition (IC50) was put at 4.41 nM and the affinity, expressed as Ki, was 3.53 nM.

`O=C(c1ccc(O)cc1)c1cc(O)c(Br)cc1O` [(4-Bromo-2,5-dihydroxyphenyl)(4-hydroxyphenyl)methanone (22)]: inhibition was half-maximal at 4.58 nM (IC50) and the Ki is 2.78 nM.

The molecule `O=C(c1ccccc1)c1cc(O)c(Br)cc1O` [(4-Bromo-2,5-dihydroxyphenyl)(phenyl)methanone (23)] had an IC50 of 4.88 nM and a Ki of 3.24 nM.

Consider `COc1ccc(C(=O)c2cc(OC)c(Br)cc2OC)cc1` [(4-Bromo-2,5-dimethoxyphenyl)(4-methoxyphenyl)methanone (15)], for which the IC50 is 4.22 nM and the Ki turned out to be 3.77 nM.

Turning to `COc1cc(C(=O)c2ccccc2)c(OC)cc1Br` [(4-Bromo-2,5-dimethoxyphenyl)(phenyl)methanone (16)], the 50% inhibitory concentration (IC50) was 4.68 nM and the affinity, expressed as Ki, was 5.28 nM.

As to `O=C(c1ccc(O)cc1)c1cc(Br)c(O)cc1O` [(5-Bromo-2,4-dihydroxyphenyl)(4-hydroxyphenyl)methanone (24)], inhibition was half-maximal at 4.81 nM (IC50) and the Ki worked out at 5.72 nM.

As for `COc1ccc(C(=O)c2cc(Br)c(OC)cc2OC)cc1` [(5-bromo-2,4-dimethoxyphenyl)(4-methoxyphenyl)methanone (19)], the IC50 is 4.05 nM and affinity was put at a Ki of 3.65 nM.
